The source of these data is patent publication US8507445B2, “Compositions and methods of use of targeting peptides for diagnosis and therapy of human cancer” (Board of Regents, The University of Texas System, priority 2002, dated 2013).

For the first assay, the system named is immunoglobulins from the serum of prostate cancer patient M. Description: Biopanning on purified immunoglobulins from serum of prostate cancer patient M. The settings on record: three rounds of panning; early stage. It counts as binding, human. From the text: The methods used were similar to those described in Example 4. A subtraction protocol was used, in which IgG from a normal individual was coupled to protein G chromatography beads. A cyclic CX6C phage display library, prepared as described above, was exposed to the normal IgG's. […] Antibodies from patient M (prostate cancer patient) were attached to fresh protein G chromatograpy beads. […] This procedure was followed for three rounds of screening and targeting peptides against patient M's antibodies were obtained.
Serum samples from the same patient were obtained from archival specimens and used to obtain targeting peptides. Patient M's serum from 1994 (early stage cancer), 1998 (intermediate stage) and 2000 (late stage) were used to obtain antibody targeting peptides as described above.
Regarding CLTSENAC, the “phage exhibiting the sequence / total clones, 1994 Serum” value is “CLTSENAC (1/22)”. Still for that read-out and setting: in the case of CISSPSNC it was “CISSPSNC (1/22)”; in that of CRASAMVC, “CRASAMVC (1/22)”. The same measure, in the same setting: to CNSAFAGC belongs “CNSAFAGC (1/22)”. On the same count and under the same terms, to CAVKSVTC belongs “CAVKSVTC (1/22)”; to CSYTFAGC, “CSYTFAGC (1/22)”; to CSTFAGSC, “CSTFAGSC (1/22)”. CQFENGTC: the “phage exhibiting the sequence / total clones, 1994 Serum” value is listed as “CQFENGTC (1/22)”. Same read-out and setting: in the case of CTFAGSSC it was “CTFAGSSC (6/22)”; in that of CSASDLSC, “CSASDLSC (2/22)”. Same read-out and setting: in the case of CNGFMGYC it was “CNGFMGYC (1/22)”. In the case of CIDMTHQC, the “phage exhibiting the sequence / total clones, 1994 Serum” value is “CIDMTHQC (1/22)”. Same read-out and setting: to CNQSMWSC belongs “CNQSMWSC (1/22)”. On the same count and under the same terms, in the case of CRDGYHHC it was “CRDGYHHC (1/22)”; in that of CQNQYPEC, “CQNQYPEC (1/22)”.

Still in this assay, the particulars now being: three rounds of panning; intermediate stage.
For the sequence CSKKFVTC, the “phage exhibiting the sequence / total clones, 1998 Serum” value is given as “CSKKFVTC (3/20)”. On the same count and under the same terms, in the case of CKNKHTTC it was “CKNKHTTC (1/20)”. The same measure, in the same setting: in the case of CNSAFAGC it was “CNSAFAGC (1/20)”; in that of CNNMYAGC, “CNNMYAGC (1/20)”. Consider CTFAGSSC, for which the “phage exhibiting the sequence / total clones, 1998 Serum” value was “CTFAGSSC (12/20)”. On to CFETFAGC, for which the “phage exhibiting the sequence / total clones, 1998 Serum” value was “CFETFAGC (1/20)”. Still for that read-out and setting: in the case of CQNQYPEC it was “CQNQYPEC (1/20)”.

The assay is the same for the next values; noted with them: three rounds of panning; late stage.
Regarding CNSAFAGC, the “phage exhibiting the sequence / total clones, 2000 Serum” value is recorded as “CNSAFAGC (1/29)”. On the same count and under the same terms, in the case of CFPKRVTC it was “CFPKRVTC (1/29)”; in that of CPRSAKNC, “CPRSAKNC (1/29)”; in that of CTFAGSSC, “CTFAGSSC (26/29)”.

Another assay deals with DU145 xenografts. The experiment in a line: Biopanning of X2CX14CX2 phage library in tumor-bearing mice. The class given is in vivo, nude mice. The settings on record: third round, 76 translated clones. Here is the method: DU145 prostate tumor cells were injected subcutaneously into the right fat pad of nude mice. A large phage library (X2CX14CX2) was prepared as discussed above and 10^9 phage were injected into male tumor-bearing nude mice. After 24 hr circulation, tumors were removed and phage recovered from the tumors using the bulk method disclosed above. The recovered phage were amplified, titered and reinjected into a new set of tumor bearing nude mice. The biopanning protocol was repeated for a total of three rounds. Ninety-six phage clones recovered from the third round of biopanning were selected for sequencing. Translated sequences were obtained for 76 of the 96 clones.
Consider KSCGKYGLIVGQPFAEHCPP, for which the “number of times the sequence was obtained” value (“number” below) is reported as “KSCGKYGLIVGQPFAEHCPP (1)”. As for NDCSAHAQPGWDEVPPMCNQ, the “number” value is recorded as “NDCSAHAQPGWDEVPPMCNQ (1)”. The same measure, in the same setting: to TSCVRTGHDENLLKAAYCSS belongs “TSCVRTGHDENLLKAAYCSS (1)”; to RSCVNSDTGVLQRGAPSCLF, “RSCVNSDTGVLQRGAPSCLF (1)”; to GYCLTVVGGAVLTLALLCVT, “GYCLTVVGGAVLTLALLCVT (1)”. With PNCYSGDGEISSHIPVQCLM, the “number” value is “PNCYSGDGEISSHIPVQCLM (1)”.

With GDCETNNVTKVGGITRNCVG, the “number” value was “GDCETNNVTKVGGITRNCVG (1)”. Same read-out and setting: to SRCHALRSQSVSTSAGACIS belongs “SRCHALRSQSVSTSAGACIS (1)”. Still for that read-out and setting: to DACSRFLGERVDATAAGCSR belongs “DACSRFLGERVDATAAGCSR (2)”; to PGCVVSPFALSAQGTSVCTI, “PGCVVSPFALSAQGTSVCTI (1)”; to VECVMASASTDGTAAHPCKP, “VECVMASASTDGTAAHPCKP (1)”.

Consider NQCSSLLTYQGWKRTKDCIP, for which the “number” value is recorded as “NQCSSLLTYQGWKRTKDCIP (1)”. The same measure, in the same setting: in the case of NNCPVEGSQQNYSGATWCRA it was “NNCPVEGSQQNYSGATWCRA (1)”; in that of RTCEEVRNRALEELTNFCPY, “RTCEEVRNRALEELTNFCPY (1)”.

With GNCMGLQVSELFMGPYKCRQ, the “number” value is on record as “GNCMGLQVSELFMGPYKCRQ (2)”. Still for that read-out and setting: to KICPVTNMWTTPSWAHKCGM belongs “KICPVTNMWTTPSWAHKCGM (1)”. On the same count and under the same terms, to ARCREDTGFMGLGSANICTD belongs “ARCREDTGFMGLGSANICTD (1)”; to WVCTSASQDTRLKEPGMCIA, “WVCTSASQDTRLKEPGMCIA (1)”.

Consider LGCNKGRYWLSTRLSVSCAL, for which the “number” value is “LGCNKGRYWLSTRLSVSCAL (1)”. On the same count and under the same terms, in the case of RTCQVRSNNISPRMALACVT it was “RTCQVRSNNISPRMALACVT (1)”; in that of RGCTEAAGLVIGITTHQCGN, “RGCTEAAGLVIGITTHQCGN (3)”; in that of IGCNHPSPLGSTVVPTYCFK, “IGCNHPSPLGSTVVPTYCFK (3)”. On to VRCNEAQLQDSGTVPHPCLR, for which the “number” value is reported as “VRCNEAQLQDSGTVPHPCLR (1)”. Still for that read-out and setting: in the case of KLCYRSSAGSELRPPEKCAY it was “KLCYRSSAGSELRPPEKCAY (1)”. For the sequence LRCPLEVDRPNRDPAFLCSQ, the “number” value is listed as “LRCPLEVDRPNRDPAFLCSQ (1)”. On the same count and under the same terms, in the case of TECRGASSGSVSGAATDCRD it was “TECRGASSGSVSGAATDCRD (1)”; in that of QHCVKGQFPFRESVTITCNS, “QHCVKGQFPFRESVTITCNS (1)”; in that of GPCAATGVNPGDHGAAVCDQ, “GPCAATGVNPGDHGAAVCDQ (1)”. Still for that read-out and setting: to EGCSDIMNTAAERVTGDCSY belongs “EGCSDIMNTAAERVTGDCSY (2)”.

HTCWGARDVAQPSGTVRCLK: the “number” value is “HTCWGARDVAQPSGTVRCLK (1)”.

With TTCNKSMSSQPMRDSRECHR, the “number” value was “TTCNKSMSSQPMRDSRECHR (1)”. Still for that read-out and setting: in the case of GTCPRQFFHMQEFWPSDCSR it was “GTCPRQFFHMQEFWPSDCSR (3)”. Same read-out and setting: to MHCTSQTLRGTPSLAPKCSD belongs “MHCTSQTLRGTPSLAPKCSD (1)”; to NRCMPGFLDDADSAASPCGS, “NRCMPGFLDDADSAASPCGS (1)”. Consider YSCTRLNGTGLQNPPSACDR, for which the “number” value was “YSCTRLNGTGLQNPPSACDR (1)”. Turning to DRCVLVRPEFGRGDARLCHS, the “number” value is recorded as “DRCVLVRPEFGRGDARLCHS (2)”. Same read-out and setting: to RGCWRDSTAWHVSYPVECLA belongs “RGCWRDSTAWHVSYPVECLA (1)”. Still for that read-out and setting: to VVCFMERQMGTDVVSPMCVN belongs “VVCFMERQMGTDVVSPMCVN (1)”; to TLCRSLEHEVGLFKPRECPF, “TLCRSLEHEVGLFKPRECPF (1)”. Same read-out and setting: to VFCCGSYCGGVEMLASRCGH belongs “VFCCGSYCGGVEMLASRCGH (2)”. As for PNCDLDDIVLNPYTAGPCGT, the “number” value was “PNCDLDDIVLNPYTAGPCGT (1)”. The same measure, in the same setting: in the case of TLCPPASMGLGREKPRLCSV it was “TLCPPASMGLGREKPRLCSV (1)”. Still for that read-out and setting: in the case of VACDISAVERLPASARSCKT it was “VACDISAVERLPASARSCKT (1)”.

For RECGRTVHRYPWGSPESCER, the “number” value is “RECGRTVHRYPWGSPESCER (2)”.
